From ChEMBL document CHEMBL1148480, “Structure-activity studies of orexin a and orexin B at the human orexin 1 and orexin 2 receptors led to orexin 2 receptor selective and orexin 1 receptor preferring ligands” (J Med Chem, 2004)
pEC50: −log10 of the molar value. Non-standard residues stand in square brackets, D forms with d. Residues, ends and D or L forms follow the SMILES beside them. pGlu = O=C1CC[C@@H](C(=O)O)N1

Experiments:
Orexin receptor type 2 = biological target: T1, Orexin receptor type 2 (Homo sapiens, UniProt O43614); test: Effective agonist concentration to the human Orexin receptor type 2 was determined using the Xlfit program; assay type: functional
T1 sequence (O43614 whole entry): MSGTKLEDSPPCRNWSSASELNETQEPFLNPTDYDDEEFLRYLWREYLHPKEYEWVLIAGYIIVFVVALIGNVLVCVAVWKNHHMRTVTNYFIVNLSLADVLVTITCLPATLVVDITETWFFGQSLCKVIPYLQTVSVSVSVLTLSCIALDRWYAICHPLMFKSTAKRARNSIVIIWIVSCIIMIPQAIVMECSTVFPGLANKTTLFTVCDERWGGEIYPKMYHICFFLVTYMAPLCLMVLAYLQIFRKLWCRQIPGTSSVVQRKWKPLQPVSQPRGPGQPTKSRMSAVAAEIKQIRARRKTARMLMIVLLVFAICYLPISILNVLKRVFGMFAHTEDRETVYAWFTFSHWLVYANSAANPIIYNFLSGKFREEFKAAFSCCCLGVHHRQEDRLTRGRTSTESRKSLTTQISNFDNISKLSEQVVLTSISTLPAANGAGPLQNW

[1] = biological target: T2, Orexin/Hypocretin receptor type 1 (Homo sapiens, UniProt O43613); test: Effective agonist concentration to human orexin receptor type 1 determined using the Xlfit program; assay type: functional
T2 sequence (O43613 whole entry): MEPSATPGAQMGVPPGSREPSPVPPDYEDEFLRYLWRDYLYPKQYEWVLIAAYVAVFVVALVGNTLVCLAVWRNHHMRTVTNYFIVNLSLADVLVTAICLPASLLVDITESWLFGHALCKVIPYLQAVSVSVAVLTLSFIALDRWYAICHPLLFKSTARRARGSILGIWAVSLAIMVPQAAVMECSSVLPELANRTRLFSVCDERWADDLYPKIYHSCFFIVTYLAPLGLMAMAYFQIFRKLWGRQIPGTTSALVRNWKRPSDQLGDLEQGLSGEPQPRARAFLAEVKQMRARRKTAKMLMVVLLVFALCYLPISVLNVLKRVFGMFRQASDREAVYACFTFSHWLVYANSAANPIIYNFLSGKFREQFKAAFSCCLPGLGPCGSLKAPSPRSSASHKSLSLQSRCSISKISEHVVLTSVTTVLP

Row | Compound | pEC50 (Orexin receptor type 2) | pEC50 [1]
1 | CSCC[C@H](NC(=O)[C@@H](NC(=O)[C@H](CC(C)C)NC(=O)[C@H](C)NC(=O)CNC(=O)[C@H](C)NC(=O)[C@H](C)NC(=O)[C@H](Cc1c[nH]cn1)NC(=O)[C@H](CC(N)=O)NC(=O)CNC(=O)[C@H](CO)NC(=O)[C@H](C)NC(=O)[C@H](CCC(N)=O)NC(=O)[C@H](CC(C)C)NC(=O)[C@H](CC(C)C)NC(=O)[C@H](CCCN=C(N)N)NC(=O)[C@H](CCC(N)=O)NC(=O)[C@H](CC(C)C)NC(=O)[C@H](CCCN=C(N)N)NC(=O)CNC(=O)[C@H](CCC(N)=O)NC(=O)[C@H](CC(C)C)NC(=O)CN)[C@@H](C)O)C(=O)O (H-GLQGRLQRLLQASGNHAAGALTM-OH) | < 3.00 | < 3.00
2 | CC(C)C[C@H](NC(=O)CNC(=O)[C@@H]1CCCN1C(=O)[C@@H]1CCCN1C(=O)CNC(=O)[C@H](CO)NC(=O)[C@@H](N)CCCNC(=N)N)C(=O)N[C@@H](CCC(N)=O)C(=O)NCC(=O)N[C@@H](CCCNC(=N)N)C(=O)N[C@@H](CC(C)C)C(=O)N[C@@H](CCC(N)=O)C(=O)N[C@@H](CCCNC(=N)N)C(=O)N[C@@H](CC(C)C)C(=O)N[C@@H](CC(C)C)C(=O)N[C@@H](CCC(N)=O)C(=O)N[C@@H](C)C(=O)N[C@@H](CO)C(=O)NCC(=O)N[C@@H](CC(N)=O)C(=O)N[C@@H](Cc1cnc[nH]1)C(=O)O (H-RSGPPGLQGRLQRLLQASGNH-OH) | < 3.00 | < 3.00
3 | CC[C@H](C)[C@H](NC(=O)CNC(=O)[C@H](C)NC(=O)[C@H](C)NC(=O)[C@H](Cc1c[nH]cn1)NC(=O)[C@H](CC(N)=O)NC(=O)CNC(=O)[C@H](C)N)C(=O)N[C@@H](CC(C)C)C(=O)N[C@H](C(=O)N[C@@H](CC(C)C)C(=O)O)[C@@H](C)O (H-AGNHAAGILTL-OH) | < 3.00 | < 3.00
4 | CC(C)C[C@H](NC(=O)[C@@H]1CCCN1C(=O)[C@@H]1CCC(=O)N1)C(=O)N1CCC[C@H]1C(=O)N[C@@H](CC(=O)O)C(=O)N[C@@H](CS)C(=O)N[C@@H](CS)C(=O)N[C@@H](CCCN=C(N)N)C(=O)N[C@@H](CCC(N)=O)C(=O)N[C@@H](CCCCN)C(=O)N[C@H](C(=O)N[C@@H](CS)C(=O)N[C@@H](CO)C(=O)O)[C@@H](C)O | < 3.00 | < 3.00
5 | CC(C)C[C@H](NC(=O)CNC(=O)[C@@H]1CCCN1C(=O)[C@@H]1CCCN1C(=O)CNC(=O)[C@H](CO)NC(=O)[C@@H](N)CCCN=C(N)N)C(=O)N[C@@H](CCC(N)=O)C(=O)NCC(=O)N[C@@H](CCCN=C(N)N)C(=O)N[C@@H](CC(C)C)C(=O)N[C@@H](CCC(N)=O)C(=O)N[C@@H](CCCN=C(N)N)C(=O)O (H-RSGPPGLQGRLQR-OH) | < 3.00 | < 3.00
6 | CC[C@H](C)[C@H](NC(=O)CNC(=O)[C@H](C)NC(=O)[C@H](C)NC(=O)[C@H](Cc1c[nH]cn1)NC(=O)[C@H](CC(N)=O)NC(=O)CNC(=O)[C@H](C)NC(=O)CNC(=O)[C@H](Cc1c[nH]cn1)NC(=O)[C@H](CC(C)C)NC(=O)[C@@H](N)CC(C)C)C(=O)N[C@@H](CC(C)C)C(=O)N[C@H](C(=O)N[C@@H](CC(C)C)C(=O)O)[C@@H](C)O (H-LLHGAGNHAAGILTL-OH) | < 3.00 | –

Continued, values first:

Row | pEC50 (Orexin receptor type 2) | pEC50 [1] | Compound
7 | 6.21 | 5.34 | CC[C@H](C)[C@H](NC(=O)CNC(=O)[C@H](C)NC(=O)[C@H](C)NC(=O)[C@H](Cc1cnc[nH]1)NC(=O)[C@H](CC(N)=O)NC(=O)CNC(=O)[C@H](C)NC(=O)CNC(=O)[C@H](Cc1cnc[nH]1)NC(=O)[C@H](CC(C)C)NC(=O)[C@H](CC(C)C)NC(=O)[C@H](CCC(=O)O)NC(=O)[C@H](Cc1ccc(O)cc1)NC(=O)[C@H](CC(C)C)NC(=O)[C@H](CCCNC(=N)N)NC(=O)CNC(=O)[C@@H]1CCCN1C(=O)[C@H](CC(=O)O)NC(=O)[C@@H]1CCCN1C(=O)[C@H](CC(C)C)NC(=O)[C@@H]1CCCN1C(=O)[C@@H]1CCC(=O)N1)C(=O)N[C@@H](CC(C)C)C(=O)N[C@H](C(=O)N[C@@H](CC(C)C)C(=O)O)[C@@H](C)O ([pGlu]PLPDPGRLYELLHGAGNHAAGILTL-OH)
8 | 5.57 | < 3.00 | CC[C@H](C)[C@H](NC(=O)CNC(=O)[C@H](C)NC(=O)[C@H](C)NC(=O)[C@H](Cc1cnc[nH]1)NC(=O)[C@H](CC(N)=O)NC(=O)CNC(=O)[C@H](CO)NC(=O)[C@H](C)NC(=O)[C@H](CCC(N)=O)NC(=O)[C@H](CC(C)C)NC(=O)[C@H](CC(C)C)NC(=O)[C@H](CCCNC(=N)N)NC(=O)[C@H](CCC(N)=O)NC(=O)[C@H](CC(C)C)NC(=O)[C@H](CCCNC(=N)N)NC(=O)CNC(=O)[C@H](CCC(N)=O)NC(=O)[C@H](CC(C)C)NC(=O)CN)C(=O)N[C@@H](CC(C)C)C(=O)N1CCC[C@H]1C(=O)N[C@@H](CCSC)C(=O)O (H-GLQGRLQRLLQASGNHAAGILPM-OH)
9 | < 3.00 | < 3.00 | CC(C)C[C@H](NC(=O)[C@@H]1CCCN1C(=O)[C@@H]1CCC(=O)N1)C(=O)N1CCC[C@H]1C(=O)N[C@@H](CC(=O)O)C(=O)N[C@@H](CS)C(=O)N[C@@H](CS)C(=O)N[C@@H](CCCN=C(N)N)C(=O)N[C@@H](CCC(N)=O)C(=O)N[C@@H](CCCCN)C(=O)N[C@H](C(=O)O)[C@@H](C)O
10 | 6.38 | 5.75 | CC[C@H](C)[C@H](NC(=O)CNC(=O)[C@H](C)NC(=O)[C@H](C)NC(=O)[C@H](Cc1cnc[nH]1)NC(=O)[C@H](CC(N)=O)NC(=O)CNC(=O)[C@H](C)NC(=O)CNC(=O)[C@H](Cc1cnc[nH]1)NC(=O)[C@H](CC(C)C)NC(=O)[C@H](CC(C)C)NC(=O)[C@H](CCC(=O)O)NC(=O)[C@H](Cc1ccc(O)cc1)NC(=O)[C@H](CC(C)C)NC(=O)[C@@H](N)CCCNC(=N)N)C(=O)N[C@@H](CC(C)C)C(=O)N[C@H](C(=O)N[C@@H](CC(C)C)C(=O)O)[C@@H](C)O (H-RLYELLHGAGNHAAGILTL-OH)
11 | 6.42 | 5.92 | CC[C@H](C)[C@H](NC(=O)CNC(=O)[C@H](C)NC(=O)[C@H](C)NC(=O)[C@H](Cc1cnc[nH]1)NC(=O)[C@H](CC(N)=O)NC(=O)CNC(=O)[C@H](C)NC(=O)CNC(=O)[C@H](Cc1cnc[nH]1)NC(=O)[C@H](CC(C)C)NC(=O)[C@H](CC(C)C)NC(=O)[C@H](CCC(=O)O)NC(=O)[C@H](Cc1ccc(O)cc1)NC(=O)[C@H](CC(C)C)NC(=O)[C@H](CCCNC(=N)N)NC(=O)[C@H](CS)NC(=O)[C@H](CO)NC(=O)[C@H](CS)NC(=O)[C@@H](N)[C@@H](C)O)C(=O)N[C@@H](CC(C)C)C(=O)N[C@H](C(=O)N[C@@H](CC(C)C)C(=O)O)[C@@H](C)O (H-TCSCRLYELLHGAGNHAAGILTL-OH)
12 | 6.72 | 5.79 | CC[C@H](C)[C@H](NC(=O)CNC(=O)[C@H](C)NC(=O)[C@H](C)NC(=O)[C@H](Cc1cnc[nH]1)NC(=O)[C@H](CC(N)=O)NC(=O)CNC(=O)[C@H](CO)NC(=O)[C@H](C)NC(=O)[C@H](C)NC(=O)[C@H](CC(C)C)NC(=O)[C@H](CC(C)C)NC(=O)[C@H](CCCNC(=N)N)NC(=O)[C@H](CCC(N)=O)NC(=O)[C@H](CC(C)C)NC(=O)[C@H](CCCNC(=N)N)NC(=O)CNC(=O)[C@H](CCC(N)=O)NC(=O)[C@H](CC(C)C)NC(=O)CN)C(=O)N[C@@H](CC(C)C)C(=O)N[C@H](C(=O)N[C@@H](CCSC)C(=O)O)[C@@H](C)O (H-GLQGRLQRLLAASGNHAAGILTM-OH)
13 | 6.62 | 6.16 | CC[C@H](C)[C@H](NC(=O)CNC(=O)[C@H](C)NC(=O)[C@H](C)NC(=O)[C@H](Cc1cnc[nH]1)NC(=O)[C@H](CC(N)=O)NC(=O)CNC(=O)[C@H](C)NC(=O)CNC(=O)[C@H](Cc1cnc[nH]1)NC(=O)[C@H](CC(C)C)NC(=O)[C@H](CC(C)C)NC(=O)[C@H](CCC(=O)O)NC(=O)[C@H](Cc1ccc(O)cc1)NC(=O)[C@H](CC(C)C)NC(=O)[C@H](CCCNC(=N)N)NC(=O)[C@H](CSSC[C@H](NC(=O)[C@@H](N)CO)C(=O)N[C@@H](CCCNC(=N)N)C(=O)N[C@@H](CC(C)C)C(=O)N[C@@H](Cc1ccc(O)cc1)C(=O)N[C@@H](CCC(=O)O)C(=O)N[C@@H](CC(C)C)C(=O)N[C@@H](CC(C)C)C(=O)N[C@@H](Cc1cnc[nH]1)C(=O)NCC(=O)N[C@@H](C)C(=O)NCC(=O)N[C@@H](CC(N)=O)C(=O)N[C@@H](Cc1cnc[nH]1)C(=O)N[C@@H](C)C(=O)N[C@@H](C)C(=O)NCC(=O)N[C@H](C(=O)N[C@@H](CC(C)C)C(=O)N[C@H](C(=O)N[C@@H](CC(C)C)C(=O)O)[C@@H](C)O)[C@@H](C)CC)NC(=O)[C@@H](N)CO)C(=O)N[C@@H](CC(C)C)C(=O)N[C@H](C(=O)N[C@@H](CC(C)C)C(=O)O)[C@@H](C)O
14 | 5.63 | < 3.00 | CC[C@H](C)[C@H](NC(=O)CNC(=O)[C@H](C)NC(=O)[C@H](C)NC(=O)[C@H](Cc1cnc[nH]1)NC(=O)[C@H](CC(N)=O)NC(=O)CNC(=O)[C@H](CO)NC(=O)[C@H](C)NC(=O)[C@H](CCC(N)=O)NC(=O)[C@H](C)NC(=O)[C@H](CC(C)C)NC(=O)[C@H](CCCNC(=N)N)NC(=O)[C@H](CCC(N)=O)NC(=O)[C@H](CC(C)C)NC(=O)[C@H](CCCNC(=N)N)NC(=O)CNC(=O)[C@H](CCC(N)=O)NC(=O)[C@H](CC(C)C)NC(=O)CN)C(=O)N[C@@H](CC(C)C)C(=O)N[C@H](C(=O)N[C@@H](CCSC)C(=O)O)[C@@H](C)O (H-GLQGRLQRLAQASGNHAAGILTM-OH)
